Results as given in patent publication US20070275855A1, “Herbicidal Composition” (ISHIHARA SANGYO KAISHA, LTD., priority 2004, published 2007).

Legend:
Type in all cases: in vivo
[1] = tested on: Japanese bulrush (Scirpus juncoides); experiment: Test Example 4: paddy pot test, submerged application at 2.2 to 2.8 leaf stage; conditions: for Growth inhibition rate (%) Observed: 2.2 to 2.8 leaf stage, 29 days after application
Description: (§1) Growth inhibition rate (%)=0% (equivalent to the non-treated area) to 100% (complete kill)
Paddy field soil was put into a 1/1,700 are pot, and seeds of Japanese bulrush (Scirpus juncoides) were sown and left to stand under an irrigated condition with a water depth of 3.5 cm. When Japanese bulrush reached 2.2 to 2.8 leaf stage, a wettable powder of compound A2, a wettable powder of compound B1 and an emulsifiable concentrate of benfuresate were, respectively, diluted with water and applied under submerged condition so that the active ingredients became the prescribed amounts, respectively. The state of growth was visually observed 29 days after application and evaluated in the same manner as in the above Test Example 1.

[2] = tested on: barnyardgrass (Echinochloa oryzicola vasing); experiment: Test Example 1: paddy pot test, submerged application on the next day after sowing; conditions: for Growth inhibition rate (%) Observed: next day after sowing, 21 days after application
Description: (§2) When the herbicidal activity in a case where two active ingredients are combined, is larger than the simple sum of the respective herbicidal activities of the two active ingredients (the expected activity), it is called a synergistic effect. The activity expected by the combination of two active ingredients can be calculated as follows (Colby S. R., “Weed”, vol. 15, p. 20-22, 1967). E=α+β−(α×β÷100) where α: growth inhibition rate when treated with x (g/a) of herbicide X,
(§3) β: growth inhibition rate when treated with y (g/a) of herbicide Y,
(§4) E: growth inhibition rate expected when treated with x (g/a) of herbicide X and y (g/a) of herbicide Y.
(§5) Namely when the actual growth inhibition rate (observed value) is larger than the growth inhibition rate by the above calculation (expected value), the activity by the combination can be regarded as showing a synergistic effect.
Paddy field soil was put into a 1/1,700 are pot, and seeds of barnyardgrass (Echinochloa oryzicola vasing) were sown and left to stand under an irrigated condition with a water depth of 3.5 cm. On the next day after the sowing, a wettable powder of compound A2 diluted with water and a microemulsion of compound B1 as it was were, respectively, applied under submerged condition so that the active ingredients became the prescribed amounts, respectively The state of growth was visually observed 21 days after application and the growth inhibition rate (%) evaluated in accordance with the following evaluation standard (observed value) and the growth inhibition rate (%) calculated by the above-mentioned Colby method (expected value) are shown in Table 1.
as §1

[3] = tested on: barnyardgrass (Echinochloa oryzicola vasing); experiment: Test Example 5: paddy pot test, submerged application at 2.4 to 3.2 leaf stage
Description: as §1
Paddy field soil was put into a 1/10,000 are pot, and seeds of barnyardgrass (Echinochloa oryzicola vasing) were sown and left to stand under an irrigated condition with a water depth of 3.5 cm. When barnyardgrass reached 2.4 to 3.2 leaf stage, wettable powders of compound A2 compound B1 and azimsulfuron were, respectively, diluted with water and applied under submerged condition so that the active ingredients became the prescribed amounts, respectively. The state of growth was visually observed 29 days after application and evaluated in the same manner as in the above Test Example 1.

[4] = tested on: barnyardgrass (Echinochloa oryzicola vasing); experiment: Test Example 2: paddy pot test, submerged application at 2 leaf stage; conditions: for Growth inhibition rate (%) Observed: 2 leaf stage, 18 days after application
Description: as §2, §3, §4, §5, §1
Paddy field soil was put into a 1/10,000 are pot, and seeds of barnyardgrass (Echinochloa oryzicola vasing) were sown and left to stand under an irrigated condition with a water depth of 3.5 cm. When barnyardgrass reached 2 leaf stage, a wettable powder of compound A2 diluted with water and a microemulsion of compound B1 as it was were, respectively, applied under submerged condition so that the active ingredients became the prescribed amounts, respectively. The state of growth was visually observed 18 days after application and evaluated in the same manner as in the above Test Example 1.

[5] = tested on: barnyardgrass (Echinochloa oryzicola vasing); experiment: Test Example 3: paddy pot test, submerged application at 3 leaf stage; conditions: 504 h, 21 days after application, read-out: Growth inhibition rate (%) Observed
Description: as §2, §3, §4, §5, §1
Paddy field soil was put into a 1/10,000 are pot, and seeds of barnyardgrass (Echinochloa oryzicola vasing) were sown and left to stand under an irrigated condition with a water depth of 3.5 cm. […] The state of growth was visually observed 21 days after application and evaluated in the same manner as in the above Test Example 1.

[6] = Schoenoplectiella juncoides, 696 h, read-out: Growth inhibition rate (%) Observed
[7] = Echinochloa oryzicola, 504 h, read-out: Growth inhibition rate (%) Observed
[8] = Echinochloa oryzicola, 432 h, read-out: Growth Inhibition rate (%) Observed

With `CCS(=O)(=O)Oc1ccc2c(c1)C(C)(C)CO2` [Benfuresate, benfuresate, reference compound] the “Growth inhibition rate (%) Observed” value ([1]; 6 g/a) was 90% and the “Growth inhibition rate (%) Observed” value ([1]; 9 g/a) was 89%.

In the case of `COCC(=O)OC(c1ncccc1S(=O)(=O)NC(=O)Nc1nc(OC)cc(OC)n1)C(C)F` (stereo not drawn) [Compound A2, flucetosulfuron], the “Growth inhibition rate (%) Observed” value ([1]; 0.22 g/a) is reported as 87%, the “Growth inhibition rate (%) Observed” value ([2]; 0.1 g/a) is reported as 95% and the “Growth inhibition rate (%) Observed” value ([2]; 0.2 g/a) is reported as 98%. For the same compound, the “Growth inhibition rate (%) Observed” value ([3]; 0.11 g/a, 2.4 to 3.2 leaf stage, 29 days after application) was 96%, the “Growth inhibition rate (%) Observed” value ([4]; 0.05 g/a) was 84% and the “Growth inhibition rate (%) Observed” value ([4]; 0.10 g/a) was 98%. For the same compound, the “Growth inhibition rate (%) Observed” value ([4]; 0.15 g/a) was 99%.

`CCOC(=O)C(Cl)Cc1cc(-n2nc(C)n(C(F)F)c2=O)c(F)cc1Cl` (stereo not drawn) [Compound B1, carfentrazone-ethyl] was tested, and the inhibition at 50 g/ha [1, 6] was 80%, the inhibition at 100 g/ha [1, 6] was 100% and the inhibition at 150 g/ha [1, 6] was 99%. It also gave an inhibition at 20 g/ha [2, 7] of 0%, an inhibition at 30 g/ha [2, 7] of 0% and an inhibition at 37.5 g/ha ([3]; Echinochloa oryzicola, 696 h, read-out: Growth inhibition rate (%) Observed) of 5%. It also gave an inhibition at 30 g/ha [4, 8] of 3%, an inhibition at 45 g/ha [4, 8] of 8% and an inhibition at 67.5 g/ha [4, 8] of 13%. The inhibition at 101.2 g/ha [4, 8] was 18%, the inhibition at 11.3 g/ha ([5]; 0.113 g/a) was 0% and the inhibition at 22.5 g/ha ([5]; 0.225 g/a) was 0%.
